In ChEMBL document CHEMBL5244216, “Pyrrole: An insight into recent pharmacological advances with structure activity relationship” (Eur J Med Chem, 2018):
≈ marks a conversion by molar mass, not a printed value.

Legend:
[1] = tested on: Mycobacterium tuberculosis; assay: Antitubercular activity against Mycobacterium tuberculosis 103471 assessed as reduction in bacterial growth; assay type: functional
[2] = biological target: Tyrosine-protein kinase Lck (Homo sapiens, UniProt P06239); assay: Inhibition of human recombinant Lck
Sequence of Tyrosine-protein kinase Lck (P06239 whole entry, the tested form may be a part): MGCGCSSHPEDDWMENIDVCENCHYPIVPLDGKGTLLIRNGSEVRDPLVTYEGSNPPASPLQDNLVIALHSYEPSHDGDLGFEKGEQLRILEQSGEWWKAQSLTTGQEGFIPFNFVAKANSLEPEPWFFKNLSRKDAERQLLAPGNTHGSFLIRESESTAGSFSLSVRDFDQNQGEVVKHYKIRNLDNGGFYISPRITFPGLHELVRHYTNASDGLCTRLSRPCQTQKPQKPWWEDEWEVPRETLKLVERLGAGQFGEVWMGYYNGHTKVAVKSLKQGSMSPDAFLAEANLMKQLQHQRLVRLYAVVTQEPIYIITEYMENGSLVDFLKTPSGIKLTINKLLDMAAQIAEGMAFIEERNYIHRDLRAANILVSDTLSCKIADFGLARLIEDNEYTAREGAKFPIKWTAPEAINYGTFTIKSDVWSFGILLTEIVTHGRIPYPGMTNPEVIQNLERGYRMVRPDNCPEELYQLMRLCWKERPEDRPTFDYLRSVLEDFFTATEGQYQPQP

[3] = tested on: Bacillus subtilis; assay: Antibacterial activity against Bacillus subtilis MTCC 121 assessed as zone of inhibition at 800 ug/mL by disk diffusion method; assay type: functional; settings: read-out: IZ
[4] = tested on: Staphylococcus aureus; assay: Antibacterial activity against Staphylococcus aureus 22 assessed as zone of inhibition at 800 ug/mL by disk diffusion method; assay type: functional; settings: read-out: IZ
[5] = tested on: Klebsiella pneumoniae; assay: Antibacterial activity against Klebsiella pneumoniae assessed as zone of inhibition at 800 ug/mL by disk diffusion method; assay type: functional; settings: read-out: IZ
[6] = tested on: MDA-MB-231; assay: Antiproliferative activity against human MDA-MB-231 cells by SRB assay
[7] = tested on: Rattus norvegicus; assay: Anti-inflammatory activity against carrageenan-induced acute paw edema in Wistar albino rat at 10 mg/kg assessed as inhibition of paw edema volume incubated for 3 hrs by Plethysmometric analysis relative to control; assay type: functional; parameters: scale not given: the % may be the effect or the level left
[8] = tested on: Mycobacterium tuberculosis; assay: Antitubercular activity against Mycobacterium tuberculosis H37Rv assessed as reduction in microbial growth by broth dilution method; assay type: functional
[9] = tested on: Rattus norvegicus; assay: Antihypertensive activity in Wistar rat assessed as decrease in systolic blood pressure at 20 mg/kg, po measured after 0.5 to 2 hrs by tail cuff method; assay type: functional; settings: time 0.5-2 hrs
[10] = Toxicity in Nilaparvata lugens assessed as mortality at 0.8 mg/L relative to control; settings: at 0.8 µg/mL
[11] = tested on: Rattus norvegicus; assay: Anti-inflammatory activity against carrageenan-induced acute paw edema in Wistar albino rat at 10 mg/kg assessed as inhibition of paw edema incubated for 3 hrs by Plethysmometric analysis relative to control; assay type: functional; parameters: scale not given: the % may be the effect or the level left
[12] = tested on: Rattus norvegicus; assay: Anti-inflammatory activity against carrageenan-induced acute paw edema in Wistar albino rat at 10 mg/kg assessed as inhibition of paw edema incubated for 5 hrs by Plethysmometric analysis relative to control; assay type: functional; parameters: scale not given: the % may be the effect or the level left
[13] = tested on: Mycobacterium tuberculosis; assay: Antitubercular activity against Mycobacterium tuberculosis H37Rv assessed as reduction in bacterial growth by microplate alamar blue assay; assay type: functional
[14] = Cytotoxicity activity against human Eca-109 cells assessed as reduction in cell viability measured after 48 hrs by MTT assay; assay type: toxicity, cell-based
[15] = Cytotoxicity activity against human PC-3 cells assessed as reduction in cell viability measured after 48 hrs by MTT assay; assay type: toxicity, cell-based
[16] = Cytotoxicity activity against human SMMC-7721 cells assessed as reduction in cell viability measured after 48 hrs by MTT assay; assay type: toxicity, cell-based
[17] = Cytotoxicity activity against human A549 cells assessed as reduction in cell viability measured after 48 hrs by MTT assay; assay type: toxicity, cell-based
[18] = tested on: Pseudomonas aeruginosa; assay: Antibacterial activity against Pseudomonas aeruginosa assessed as reduction in bacterial growth by broth microdilution method; assay type: functional, organism-based
[19] = tested on: Escherichia coli; assay: Antibacterial activity against Escherichia coli assessed as reduction in bacterial growth by broth microdilution method; assay type: functional, organism-based
[20] = tested on: Klebsiella pneumoniae; assay: Antibacterial activity against Klebsiella pneumoniae assessed as reduction in bacterial growth by broth microdilution method; assay type: functional, organism-based
[21] = tested on: Staphylococcus auricularis; assay: Antibacterial activity against Staphylococcus auricularis assessed as reduction in bacterial growth by broth microdilution method; assay type: functional, organism-based
[22] = tested on: Bacillus subtilis; assay: Antibacterial activity against Bacillus subtilis assessed as reduction in bacterial growth by broth microdilution method; assay type: functional, organism-based
[23] = Inhibition of maize HD2; parameters: species or system Zea mays
[24] = Inhibition of maize HD1-B; parameters: species or system Zea mays
[25] = Inhibition of maize HD1-A; parameters: species or system Zea mays

## Cc1c(CN2CCSCC2)cc(-c2ccccc2F)n1-c1ccccc1F
[1]
  MIC: 1 µg/mL (≈ 2.6 µM)

## NC(=O)c1c(-c2ccc(Oc3ccccc3)cc2)[nH]c(C(=O)c2c(F)cccc2F)c1N
[2]
  IC50: 1.1 nM

## O=C(O)c1cn(C2CC2)c2cc(N3CCNCC3)c(F)cc2c1=O [CIPROFLOXACIN]
[3]
  zone of inhibition at 800 µg/mL: 18 mm
[4]
  zone of inhibition at 800 µg/mL: 20 mm
[5]
  zone of inhibition at 800 µg/mL: 23 mm

## COc1cc2c(c(OC)c1OC)-c1ccc(OC)c(=O)cc1[C@@H](NC(C)=O)CC2 [COLCHICINE]
[6]
  IC50: 2000 nM

## O=C([O-])Cc1ccccc1Nc1c(Cl)cccc1Cl.[Na+] [DICLOFENAC SODIUM]
[7]
  Activity: 68%

## CC[C@@H](CO)NCCN[C@@H](CC)CO [ETHAMBUTOL]
[8]
  MIC: 0.5 µg/mL

## NNc1nncc2ccccc12 [HYDRALAZINE]
[9]
  Activity: 83.59 mmHg

## O=[N+]([O-])NC1=NCCN1Cc1ccc(Cl)nc1 [IMIDACLOPRID]
[10]
  mortality: 40%

## COc1ccc2c(c1)c(CC(=O)O)c(C)n2C(=O)c1ccc(Cl)cc1 [INDOMETHACIN]
[11]
  Activity: 74.82%
[12]
  Activity: 80.32%

## NNC(=O)c1ccncc1 [ISONIAZID]
[13]
  MIC: 7.9 µg/mL (≈ 57.6 µM)
[8]
  MIC: 0.2 µg/mL
[1]
  MIC: 0.25 µg/mL (≈ 1.82 µM)

## CN1C(C(=O)Nc2ccccn2)=C(O)c2ccccc2S1(=O)=O [PIROXICAM]
[7]
  Activity: 59%

## CO[C@H]1/C=C/O[C@@]2(C)Oc3c(C)c(O)c4c(O)c(c(/C=N/N5CCN(C)CC5)c(O)c4c3C2=O)NC(=O)/C(C)=C\C=C\[C@H](C)[C@H](O)[C@@H](C)[C@@H](O)[C@@H](C)[C@H](OC(C)=O)[C@@H]1C [RIFAMPIN]
[8]
  MIC: 0.4 µg/mL
[1]
  MIC: 0.3 µg/mL (≈ 0.365 µM)

## O=C1NC(=O)C(c2c[nH]c3ccccc23)=C1c1c[nH]c2ccccc12 [RO-316233]
[14]
  IC50 at 48 h: 15900 nM
[15]
  IC50 at 48 h: 10300 nM
[16]
  IC50 at 48 h: 13200 nM
[17]
  IC50 at 48 h: 4140 nM

## CN[C@@H]1[C@H](O[C@H]2[C@H](O[C@H]3[C@H](O)[C@@H](O)[C@H](N=C(N)N)[C@@H](O)[C@@H]3N=C(N)N)O[C@@H](C)[C@]2(O)C=O)O[C@@H](CO)[C@H](O)[C@H]1O [STREPTOMYCIN]
[1]
  MIC: 0.5 µg/mL (≈ 0.86 µM)

## NC(=O)N1C(=O)/C(=C(\[O-])c2cccs2)c2cc(Cl)ccc21.[Na+] [TENIDAP SODIUM]
[7]
  Activity: 60%

## CN(C)[C@@H]1C(O)=C(C(N)=O)C(=O)[C@@]2(O)C(O)=C3C(=O)c4c(O)cccc4[C@@](C)(O)[C@H]3C[C@@H]12 [TETRACYCLINE]
[18]
  IC50: 1250 nM
[19]
  IC50: 10000 nM
[20]
  IC50: 312 nM
[21]
  IC50: 10000 nM
[22]
  IC50: 1250 nM

## CC(/C=C/C(=O)NO)=C\[C@@H](C)C(=O)c1ccc(N(C)C)cc1 [TRICHOSTATIN]
[23]
  IC50: 7 nM
[24]
  IC50: 0.4 nM
[25]
  IC50: 0.8 nM
